# Values joined by “and” are separate entries in the source; they are usually repeats but may differ in a detail not shown here. Equal values may be shown once. Marks after values point to notes of the source that are not given here.
# System: Septoria nodorum
# Assay: Fungicidal test, Septoria nodorum (LEPTNO) on wheat, PRCO
# Format: in vivo
# Conditions: METHOD 2 (unbanded)
row,SMILES,LEPTNO 1 d Prot/Foir PRCO
1,Cc1nc2cc(CC(=O)Nc3snc(C)c3Cl)ccc2o1 [2(A3)],21
2,CCCc1nc2cc(CC(=O)Nc3snc(C)c3Cl)ccc2o1 [4(A3)],50
3,Cc1nsc(NC(=O)Cc2ccc3oc(C(C)(C)C)nc3c2)c1Cl [9(A3)],55
4,Cc1nsc(NC(=O)Cc2ccc3oc(CC(C)C)nc3c2)c1Cl [14(A3)],28
5,Cc1nsc(N(C)C(=O)Cc2ccc3oc(CC(C)(C)C)nc3c2)c1Cl [15(B3)],−2

# System: Erysiphe graminis f.sp. tritici
# Assay: Fungicidal test, Erysiphe graminis f.sp. tritici (ERYSGT) on wheat, PRCO
# Format: in vivo
# Conditions: 6 hr Prot/Foir; METHOD 1 (values marked *)
row,SMILES,ERYSGT 6 hr Prot/Foir PRCO
1,Cc1nc2cc(CC(=O)Nc3snc(C)c3Cl)ccc2o1 [2(A3)],100*
2,CCCc1nc2cc(CC(=O)Nc3snc(C)c3Cl)ccc2o1 [4(A3)],100*
3,Cc1nsc(NC(=O)Cc2ccc3oc(C(C)(C)C)nc3c2)c1Cl [9(A3)],100*

# Same assay, conditions: 1 d Prot/Foir; METHOD 2 (unbanded)
row,SMILES,ERYSGT 1 d Prot/Foir PRCO
1,Cc1nsc(NC(=O)Cc2ccc3oc(CC(C)C)nc3c2)c1Cl [14(A3)],90
2,Cc1nsc(N(C)C(=O)Cc2ccc3oc(CC(C)(C)C)nc3c2)c1Cl [15(B3)],75

# System: Rhizoctonia solani
# Assay: Fungicidal test, Rhizoctonia solani (RHIZSO) on rice, PRCO
# Format: in vivo
# Conditions: METHOD 2 (unbanded)
row,SMILES,RHIZSO 1 d Prot/Foir PRCO
1,Cc1nsc(NC(=O)Cc2ccc3oc(C(C)(C)C)nc3c2)c1Cl [9(A3)],29
2,Cc1nsc(NC(=O)Cc2ccc3oc(CC(C)C)nc3c2)c1Cl [14(A3)],12
3,Cc1nsc(N(C)C(=O)Cc2ccc3oc(CC(C)(C)C)nc3c2)c1Cl [15(B3)],29

# System: Puccinia recondita
# Assay: Fungicidal test, Puccinia recondita (PUCCRT) on wheat, PRCO
# Format: in vivo
# Conditions: METHOD 1 (values marked *)
row,SMILES,PUCCRT 1 d Prot/Foir PRCO
1,Cc1nc2cc(CC(=O)Nc3snc(C)c3Cl)ccc2o1 [2(A3)],100*
2,CCCc1nc2cc(CC(=O)Nc3snc(C)c3Cl)ccc2o1 [4(A3)],100*

# Same assay, conditions: METHOD 2 (unbanded)
row,SMILES,PUCCRT 1 d Prot/Foir PRCO
1,Cc1nsc(NC(=O)Cc2ccc3oc(C(C)(C)C)nc3c2)c1Cl [9(A3)],100
2,Cc1nsc(NC(=O)Cc2ccc3oc(CC(C)C)nc3c2)c1Cl [14(A3)],97
3,Cc1nsc(N(C)C(=O)Cc2ccc3oc(CC(C)(C)C)nc3c2)c1Cl [15(B3)],15

# System: Venturia inaequalis
# Assay: Fungicidal test, Venturia inaequalis (VENTIN) on apples, PRCO
# Format: in vivo
# Conditions: METHOD 2 (unbanded)
row,SMILES,VENTIN 1 d Prot/Foir PRCO
1,Cc1nc2cc(CC(=O)Nc3snc(C)c3Cl)ccc2o1 [2(A3)],97
2,Cc1nsc(NC(=O)Cc2ccc3oc(C(C)(C)C)nc3c2)c1Cl [9(A3)],33
3,Cc1nsc(NC(=O)Cc2ccc3oc(CC(C)C)nc3c2)c1Cl [14(A3)],10
4,Cc1nsc(N(C)C(=O)Cc2ccc3oc(CC(C)(C)C)nc3c2)c1Cl [15(B3)],5

# System: Plasmopara viticola
# Assay: Fungicidal test, Plasmopara viticola (PLASVI) on vines, PRCO
# Format: in vivo
# Conditions: METHOD 1 (values marked *)
row,SMILES,PLASVI 1 d Prot/Foir PRCO
1,Cc1nc2cc(CC(=O)Nc3snc(C)c3Cl)ccc2o1 [2(A3)],0*
2,Cc1nsc(NC(=O)Cc2ccc3oc(C(C)(C)C)nc3c2)c1Cl [9(A3)],100*

# Same assay, conditions: METHOD 2 (unbanded)
row,SMILES,PLASVI 1 d Prot/Foir PRCO
1,CCCc1nc2cc(CC(=O)Nc3snc(C)c3Cl)ccc2o1 [4(A3)],34
2,Cc1nsc(NC(=O)Cc2ccc3oc(CC(C)C)nc3c2)c1Cl [14(A3)],89
3,Cc1nsc(N(C)C(=O)Cc2ccc3oc(CC(C)(C)C)nc3c2)c1Cl [15(B3)],79

# System: Uncinula necator
# Assay: Fungicidal test, Uncinula necator (UNCINE) on vines, PRCO
# Format: in vivo
# Conditions: METHOD 2 (unbanded)
row,SMILES,UNCINE 1 d Prot/Foir PRCO
1,Cc1nsc(NC(=O)Cc2ccc3oc(C(C)(C)C)nc3c2)c1Cl [9(A3)],100
2,Cc1nsc(NC(=O)Cc2ccc3oc(CC(C)C)nc3c2)c1Cl [14(A3)],98
3,Cc1nsc(N(C)C(=O)Cc2ccc3oc(CC(C)(C)C)nc3c2)c1Cl [15(B3)],100

# System: Botrytis cinerea
# Assay: Fungicidal test, Botrytis cinerea (BOTRCI) on tomatoes, PRCO
# Format: in vivo
# Conditions: METHOD 2 (unbanded)
row,SMILES,BOTRCI 1 d Prot/Foir PRCO
1,Cc1nc2cc(CC(=O)Nc3snc(C)c3Cl)ccc2o1 [2(A3)],0
2,CCCc1nc2cc(CC(=O)Nc3snc(C)c3Cl)ccc2o1 [4(A3)],49
3,Cc1nsc(NC(=O)Cc2ccc3oc(C(C)(C)C)nc3c2)c1Cl [9(A3)],3

# System: Musca domestica
# Assay: not given
# Conditions: 500 ppm by weight; knockdown assessed 15 minutes after treatment
row,SMILES,"MUSCDO AC = Musca domestica (knockdown), score"
1,Cc1nc2cc(CC(=O)Nc3snc(C)c3Cl)ccc2o1 [2(A3)],0 (0 indicates less than 40% mortality)
2,CCCc1nc2cc(CC(=O)Nc3snc(C)c3Cl)ccc2o1 [4(A3)],9 (9 indicates 80-100% mortality)
3,Cc1nsc(NC(=O)Cc2ccc3oc(C(C)(C)C)nc3c2)c1Cl [9(A3)],9 (9 indicates 80-100% mortality)
4,Cc1nsc(NC(=O)Cc2ccc3oc(CC(C)C)nc3c2)c1Cl [14(A3)],9 (9 indicates 80-100% mortality)
5,Cc1nsc(N(C)C(=O)Cc2ccc3oc(CC(C)(C)C)nc3c2)c1Cl [15(B3)],0 (0 indicates less than 40% mortality)

# System: Phytophthora infestans lycopersici
# Assay: not given
# Format: in vivo
# Conditions: METHOD 1 (values marked *)
row,SMILES,PHYTIN 1 d Prot/Foir PRCO
1,Cc1nc2cc(CC(=O)Nc3snc(C)c3Cl)ccc2o1 [2(A3)],100*
2,CCCc1nc2cc(CC(=O)Nc3snc(C)c3Cl)ccc2o1 [4(A3)],100*

# Same assay, conditions: METHOD 2 (unbanded)
row,SMILES,PHYTIN 1 d Prot/Foir PRCO
1,Cc1nsc(NC(=O)Cc2ccc3oc(C(C)(C)C)nc3c2)c1Cl [9(A3)],100
2,Cc1nsc(NC(=O)Cc2ccc3oc(CC(C)C)nc3c2)c1Cl [14(A3)],100
3,Cc1nsc(N(C)C(=O)Cc2ccc3oc(CC(C)(C)C)nc3c2)c1Cl [15(B3)],99

# System: Pyricularia oryzae
# Assay: not given
# Format: in vivo
# Conditions: METHOD 2 (unbanded)
row,SMILES,PYRIOR 1 d Prot/Foir PRCO
1,Cc1nc2cc(CC(=O)Nc3snc(C)c3Cl)ccc2o1 [2(A3)],47 and 92
2,CCCc1nc2cc(CC(=O)Nc3snc(C)c3Cl)ccc2o1 [4(A3)],90 and 81
3,Cc1nsc(NC(=O)Cc2ccc3oc(C(C)(C)C)nc3c2)c1Cl [9(A3)],100
4,Cc1nsc(NC(=O)Cc2ccc3oc(CC(C)C)nc3c2)c1Cl [14(A3)],90
5,Cc1nsc(N(C)C(=O)Cc2ccc3oc(CC(C)(C)C)nc3c2)c1Cl [15(B3)],69

# System: Meloidogyne incognita
# Assay: Nematode test, J2 infective juveniles of Meloidogyne incognita, mortality
# Conditions: 12.5 ppm; J2 infective juveniles suspended in solution; mortality after three days
row,SMILES,"MELGIN = Meloidogyne incognita, grading of mortality (score)"
1,Cc1nc2cc(CC(=O)Nc3snc(C)c3Cl)ccc2o1 [2(A3)],5 (5 indicates 40-79% mortality)
2,CCCc1nc2cc(CC(=O)Nc3snc(C)c3Cl)ccc2o1 [4(A3)],9 (9 indicates 80-100% mortality)
3,Cc1nsc(NC(=O)Cc2ccc3oc(C(C)(C)C)nc3c2)c1Cl [9(A3)],0 (0 indicates less than 40% mortality)
4,Cc1nsc(NC(=O)Cc2ccc3oc(CC(C)C)nc3c2)c1Cl [14(A3)],0 (0 indicates less than 40% mortality)
5,Cc1nsc(N(C)C(=O)Cc2ccc3oc(CC(C)(C)C)nc3c2)c1Cl [15(B3)],0 (0 indicates less than 40% mortality)

# From US6544989B2, “Benzazoles: benzoxazole, benzthiazole and benzimidazole derivatives” (Syngenta Limited, priority 1998, dated 2003)
